From patent publication EP2298778A1, “IMIDAZOTHIAZOLE DERIVATIVE HAVING 4,7-DIAZASPIROÝ2.5¨OCTANE RING STRUCTURE” (Daiichi Sankyo Company, Limited, priority 2008, dated 2009)

Experiment: Metabolic stability test (microsomal metabolism test)
Format: in vitro ADME
Conditions: pH 7.4; human-derived liver microsomes, test compound remaining after addition of NADP+ and incubation at 37°C for 30 minutes; read-out: metabolic stability of T/C%
Method in brief: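 Test compound was added as a 3 µM solution to human liver microsomes (0.3–1.5 mgP/mL) in pH 7.4 phosphate buffer with G6P, G6P dehydrogenase and MgCl2. This was preincubated 20 min at 37°C, then 3 mM NADP+ solution was added and incubated 30 min at 37°C. T/C (%) is compound remaining after versus before NADP+ addition.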

| SMILES | remaining at 0.5 h [%] |
| --- | --- |
| CC(C)C1=C(C(=O)N2[C@H](C)CC[C@H]2C(=O)N2C[C@H](C)N(C)C3(CC3)C2)SC2=N[C@@](C)(c3ccc(Cl)nc3)[C@@H](c3ccc(Cl)c(F)c3)N21 [Example 20, (5S)-7-[(5R)-1-{[(5R,6S)-5-(4-chloro-3-fluorophenyl)-6-(6-chloropyridin-3-yl)-3-isopropyl-6-methyl-5,6-dihydroimidazo[2,1-b][1,3]thiazol-2-yl]carbonyl}-5-methyl-L-prolyl]-4,5-dimethyl-4,7-diazaspiro[2.5]octane] | ≥ 50 |
| CC[C@@H]1CC[C@@H](C(=O)N2CCN(C)C3(CC3)C2)N1C(=O)C1=C(C(C)C)N2C(=N[C@@](C)(c3ccc(Cl)nc3)[C@H]2c2ccc(Cl)c(F)c2)S1 [Example 33, 7-[(5R)-1-{[(5R,6S)-5-(4-chloro-3-fluorophenyl)-6-(6-chloropyridin-3-yl)-3-isopropyl-6-methyl-5,6-dihydroimidazo[2,1-b][1,3]thiazol-2-yl]carbonyl}-5-ethyl-L-prolyl]-4-methyl-4,7-diazaspiro[2.5]octane] | ≥ 50 |
| CCOc1ccc([C@]2(C)N=C3SC(C(=O)N4[C@H](C)CC[C@H]4C(=O)N4CCNC5(CC5)C4)=C(C(C)C)N3[C@@H]2c2ccc(Cl)c(F)c2)cn1 [Example 73, 7-[(5R)-1-{[(5R,6S)-5-(4-chloro-3-fluorophenyl)-6-(6-ethoxypyridin-3-yl)-3-isopropyl-6-methyl-5,6-dihydroimidazo [2,1-b] [1,3]-thiazol-2-yl]-carbonyl}-5-methyl-L-prolyl]-4,7-diazaspiro[2.5]octane] | ≥ 50 |
| CC(C)C1=C(C(=O)N2[C@H](CF)CC[C@H]2C(=O)N2CCNC3(CC3)C2)SC2=N[C@@](C)(c3ccc(Cl)cc3)[C@@H](c3ccc(Cl)cc3)N21 [Example 38, 7-[(5S)-1-{[(5R,6S)-5,6-bis(4-chlorophenyl)-3-isopropyl-6-methyl-5,6-dihydroimidazo[2,1-b][1,3]thiazol-2-yl]carbonyl}-5-(fluoromethyl)-L-prolyl]-4,7-diazaspiro[2.5]octane] | ≥ 50 |
| CC(C)C1=C(C(=O)N2[C@H](C)CC[C@H]2C(=O)N2CCNC3(CC3)C2)SC2=N[C@@](C)(c3ccc(Cl)nc3)[C@@H](c3ccc(F)c(Cl)c3)N21 [Example 26, 7-[(5R)-1-{[(5R,6S)-5-(3-chloro-4-fluorophenyl)-6-(6-chloropyridin-3-yl)-3-isopropyl-6-methyl-5,6-dihydroimidazo[2,1-b][1,3]thiazol-2-yl]carbonyl}-5-methyl-L-prolyl]-4,7-diazaspiro[2.5]octane] | ≥ 50 |
| CC(C)C1=C(C(=O)N2[C@H](CF)CC[C@H]2C(=O)N2CCNC3(CC3)C2)SC2=N[C@@](C)(c3ccc(Cl)nc3)[C@@H](c3ccc(Cl)c(F)c3)N21 [Example 40, 7-[(5S)-1-{[(5R,6S)-5-(4-chloro-3-fluorophenyl)-6-(6-chloropyridin-3-yl)-3-isopropyl-6-methyl-5,6-dihydroimidazo[2,1-b][1,3]thiazol-2-yl]carbonyl}-5-(fluoromethyl)-L-prolyl]-4,7-diazaspiro[2.5]octane] | ≥ 50 |
| CC(C)C1=C(C(=O)N2[C@H](C)CC[C@H]2C(=O)N2CCN(CCO)C3(CC3)C2)SC2=N[C@@](C)(c3ccc(Cl)cc3)[C@@H](c3ccc(Cl)cc3)N21 [Example 3, 2-{7-[(5R)-1-{[(5R,6S)-5,6-bis(4-chlorophenyl)-3-isopropyl-6-methyl-5,6-dihydroimidazo[2,1-b][1,3]thiazol-2-yl]carbonyl}-5-methyl-L-prolyl]-4,7-diazaspiro[2.5]oct-4-yl}ethanol] | ≥ 50 |
| CC(C)C1=C(C(=O)N2[C@H](C)CC[C@H]2C(=O)N2CCN(C)C3(CC3)C2)SC2=N[C@@](C)(c3ccc(Cl)nc3)[C@@H](c3ccc(Cl)cc3)N21 [Example 9, 7-[(5R)-1-{[(5R,6S)-5-(4-chlorophenyl)-6-(6-chloropyridin-3-yl)-3-isopropyl-6-methyl-5,6-dihydroimidazo[2,1-b][1,3]thiazol-2-yl]carbonyl}-5-methyl-L-prolyl]-4-methyl-4,7-diazaspiro[2.5]octane] | ≥ 50 |
